Experiment: Solubility of FC-72 (perfluorohexane) in the fluorine-containing solvents
Type: physicochemical
Settings: not given
In the case of FC(Cl)(Cl)C(F)(F)OC(F)(Cl)C(F)(Cl)Cl (stereo not shown) [Compound (3′)], the “Solubility (% by weight) FC-72” value is reported as “soluble in any”. With FC(F)(Cl)C(F)(F)OC(F)(Cl)C(F)(Cl)Cl (stereo not shown) [Compound (2′)] the “Solubility (% by weight) FC-72” value was “soluble in any”. For FC(Cl)(Cl)C(F)(Cl)OC(F)(F)C(Cl)(Cl)Cl (stereo not shown) [Compound (4′)], the “Solubility (% by weight) FC-72” value was “soluble in any”. With FC(F)(Cl)C(F)(OC(F)(Cl)C(F)(Cl)Cl)C(F)(F)Cl (stereo not shown) [Compound (5′)] the “Solubility (% by weight) FC-72” value was “soluble in any”.

Same assay, conditions: Table 1; solute FC-72 dissolved in the solvent
For FC(F)(Cl)C(F)(OC(F)(Cl)C(Cl)(Cl)Cl)C(F)(F)Cl (stereo not shown) [Compound (3)], the “Solubility (% by weight) FC-72 (Fluorine Content: 79% by weight)” value was “soluble in any”. In the case of FC(F)(Cl)C(F)(F)OC(F)(Cl)C(Cl)(Cl)Cl (stereo not shown) [Compound (2)], the “Solubility (% by weight) FC-72 (Fluorine Content: 79% by weight)” value is reported as “soluble in any”. In the case of FC(Cl)(Cl)C(F)(F)OC(F)(Cl)C(Cl)(Cl)Cl (stereo not shown) [Compound (4)], the “Solubility (% by weight) FC-72 (Fluorine Content: 79% by weight)” value is reported as “soluble in any”. With FC(F)(OC(F)(Cl)C(Cl)(Cl)Cl)C(Cl)(Cl)Cl (stereo not shown) [Compound (5)] the “Solubility (% by weight) FC-72 (Fluorine Content: 79% by weight)” value was “soluble in any”.

Same assay, conditions: label = solvent, solute = FC-72
In the case of FC(Cl)(Cl)C(F)(F)OC(F)(Cl)C(F)(Cl)Cl (stereo not shown) [Compound (3′)], the “ability of the solvent to dissolve FC-72” value is reported as “can dissolve FC-72 in any proportion”. For FC(F)(Cl)C(F)(OC(F)(Cl)C(Cl)(Cl)Cl)C(F)(F)Cl (stereo not shown) [Compound (3)], the “ability of the solvent to dissolve FC-72” value was “can dissolve FC-72 in any proportion”. With FC(F)(Cl)C(F)(F)OC(F)(Cl)C(F)(Cl)Cl (stereo not shown) [Compound (2′)] the “ability of the solvent to dissolve FC-72” value was “can dissolve FC-72 in any proportion”. In the case of FC(F)(Cl)C(F)(F)OC(F)(Cl)C(Cl)(Cl)Cl (stereo not shown) [Compound (2)], the “ability of the solvent to dissolve FC-72” value is reported as “can dissolve FC-72 in any proportion”. In the case of FC(Cl)(Cl)C(F)(F)OC(F)(Cl)C(Cl)(Cl)Cl (stereo not shown) [Compound (4)], the “ability of the solvent to dissolve FC-72” value is reported as “can dissolve FC-72 in any proportion”. With FC(Cl)(Cl)C(F)(Cl)OC(F)(F)C(Cl)(Cl)Cl (stereo not shown) [Compound (4′)] the “ability of the solvent to dissolve FC-72” value was “can dissolve FC-72 in any proportion”. For FC(F)(Cl)C(F)(OC(F)(Cl)C(F)(Cl)Cl)C(F)(F)Cl (stereo not shown) [Compound (5′)], the “ability of the solvent to dissolve FC-72” value was “can dissolve FC-72 in any proportion”. With FC(F)(OC(F)(Cl)C(Cl)(Cl)Cl)C(Cl)(Cl)Cl (stereo not shown) [Compound (5)] the “ability of the solvent to dissolve FC-72” value was “can dissolve FC-72 in any proportion”.

Experiment: Solubility of coating-composition components in FC-72 (comparative coating examples)
Settings: label = solute, solvent = FC-72; coating composition preparation
For CCO[Si](CCCN=C=O)(OCC)OCC [3-(triethoxysilyl)propyl isocyanate], the “solubility in FC-72” value was “not completely soluble”. With OCC(F)(F)C(F)(F)C(F)(F)C(F)(F)C(F)(F)C(F)(F)C(F)(F)C(F)(F)CO [1H,1H,10H,10H-hexadecafluoro-1,10-decanediol] the “solubility in FC-72” value was “not completely soluble”.

Experiment: Measurement of solubility of compound (17) (fluorine-free organic compound) in fluorine-containing solvents
Settings: Table 1; solute compound (17) dissolved in the solvent
Protocol: The resulting solution is diluted with deutrochloroform, followed by measuring ^1H-NMR.
For FC(F)(Cl)C(F)(OC(F)(Cl)C(Cl)(Cl)Cl)C(F)(F)Cl (stereo not shown) [Compound (3)], the “Solubility (% by weight) Compound (17) (Fluorine Content: 0% by weight)” value (shortened to “Solubility (% by weight) Compound”) was “soluble in any”. In the case of FC(F)(Cl)C(F)(F)OC(F)(Cl)C(Cl)(Cl)Cl (stereo not shown) [Compound (2)], the “Solubility (% by weight) Compound” value is reported as “soluble in any”. In the case of FC(Cl)(Cl)C(F)(F)OC(F)(Cl)C(Cl)(Cl)Cl (stereo not shown) [Compound (4)], the “Solubility (% by weight) Compound” value is reported as “soluble in any”. In the case of FC(F)(OC(F)(Cl)C(Cl)(Cl)Cl)C(Cl)(Cl)Cl (stereo not shown) [Compound (5)], the “Solubility (% by weight) Compound” value is reported as “soluble in any”.
